# Results from article PMC8200345 (American Journal of Clinical Dermatology, 2021).
# Where two headings read alike, the source gives them in different places.
# How the values were obtained:
# [1] = human, in vivo
# Phase II study = format: in vivo, human (adult patients with atopic dermatitis); conditions: Phase II SLR (QD only); log-transformed Ctrough week 4 vs API dose
# [2] = any of the three studies in atopic dermatitis
# [3] = phase III studies combined
# [4] = cited from earlier work
# [5] = cited from earlier work; remark: listed apart in the source
compound,measurement,setting,value
N#CC[C@H](C1CCCC1)n1cc(-c2ncnc3[nH]ccc23)cn1 [ruxolitinib],"Dose-PK model: exponent on API dose (regression slope), estimate",[1],0.801
same,"Dose-PK model: exponent on API dose, estimate",[1],0.462
same,"Dose-PK model: exponent on baseline IGA 3, estimate",[1],0.322
same,"Dose-PK model: exponent on region = Europe, estimate",[1],0.782
same,Mean Css as percent of the whole blood IC50 value,[1],< 15%
same,"Dose-PK model: exponent on API dose (regression slope), estimate",Phase II study,0.805
same,Changes in hematological parameters,[2],no clinically relevant changes
same,Correlation between ruxolitinib Css quartiles and absolute neutrophil count,[3],no correlation
same,Average Css,[4]; 25 mg BID oral,~ 350 nM
same,Maximum tolerated dose,"[4]; oral, patients with myelofibrosis",25 mg BID
same,Bioavailability after oral dosing,[5],near-complete
